Measurements as given in patent US7531482B2, “Thieno-pyrimidine compounds having fungicidal activity” (Dow AgroSciences LLC, priority 2005, dated 2009).

What was measured:
Assay type in all cases: in vivo
[1] = system: Puccinia recondita tritici; experiment: Leaf Rust of Wheat (PUCCRT) whole-plant disease control test; conditions: Puccinia recondita, foliar, 200 ppm applied to foliage of wheat; inoculated one day after treatment; read-out: PUCCRT disease control
[2] = system: Magnaporthe grisea=Pyricularia oryzae; experiment: whole plant or invertebrate; conditions: Pyricularia oryzae, foliar, read-out: PYRIOR disease control, 200 ppm applied to foliage of rice; inoculated one day after treatment
Erysiphe cichoracaerum = experiment: Cucumber Powdery Mildew (ERYSCI) whole-plant disease control test; conditions: Erysiphe, foliar; 200 ppm applied to foliage of cucumber; inoculated one day after treatment; read-out: ERYSCI disease control
[3] = system: Mycosphaerella graminicola=Septoria tritici; experiment: Speckled Leaf Blotch of Wheat (SEPTTR) whole-plant disease control test; conditions: Mycosphaerella, foliar, 75 ppm applied to foliage of wheat; read-out: SEPTTR disease control
Phytophthora infestans = experiment: whole plant or invertebrate; conditions: Phytophthora infestans, in Solanum lycopersicum, foliar, read-out: PHYTIN disease control, 200 ppm applied to foliage of tomato; inoculated one day after treatment
Colletotricum lagenarium = experiment: Cucumber Anthracnose (COLLLA) whole-plant disease control test; conditions: Cucumis sativus, foliar; 200 ppm applied to foliage of cucumber; inoculated one day after treatment; read-out: COLLLA disease control
Leptosphaeria nodorum = experiment: Glume Blotch of Wheat (LEPTNO) whole-plant disease control test; conditions: Parastagonospora nodorum, foliar; 200 ppm applied to foliage of wheat; inoculated one day after treatment; read-out: LEPTNO disease control

FC(F)(F)c1ccnc(Oc2cccc(CCNc3ncnc4scc(Cl)c34)c2)c1 [Compound 69]
pest or weed control at 200 ppm [1]: 80 to 100% | pest or weed control at 200 ppm [2]: 80 to 100% | pest or weed control at 200 ppm (Erysiphe cichoracaerum): 50 to 79% | pest or weed control at 75 ppm [3]: 50 to 79% | pest or weed control at 200 ppm (Phytophthora infestans): 0 to 49% | pest or weed control at 200 ppm (Colletotricum lagenarium): 0 to 49% | pest or weed control at 200 ppm (Leptosphaeria nodorum): 0 to 49%

Cc1cc(OC(F)F)cnc1Oc1ccc(CCNc2ncnc3scc(Cl)c23)cc1 [Compound 70]
pest or weed control at 200 ppm [1]: 80 to 100% | pest or weed control at 200 ppm [2]: 80 to 100% | pest or weed control at 200 ppm (Erysiphe cichoracaerum): 0 to 49% | pest or weed control at 75 ppm [3]: 80 to 100% | pest or weed control at 200 ppm (Phytophthora infestans): 50 to 79% | pest or weed control at 200 ppm (Colletotricum lagenarium): 80 to 100% | pest or weed control at 200 ppm (Leptosphaeria nodorum): 80 to 100%

N#Cc1c(Cl)cncc1Oc1ccc(CCNc2ncnc3scc(Cl)c23)cc1 [Compound 71]
pest or weed control at 200 ppm [1]: 80 to 100% | pest or weed control at 200 ppm [2]: 80 to 100% | pest or weed control at 200 ppm (Erysiphe cichoracaerum): 50 to 79% | pest or weed control at 75 ppm [3]: 80 to 100% | pest or weed control at 200 ppm (Phytophthora infestans): 0 to 49% | pest or weed control at 200 ppm (Colletotricum lagenarium): 80 to 100% | pest or weed control at 200 ppm (Leptosphaeria nodorum): 80 to 100%

N#Cc1ccncc1Oc1ccc(CCNc2ncnc3scc(Cl)c23)cc1 [Compound 74]
pest or weed control at 200 ppm [1]: 80 to 100% | pest or weed control at 200 ppm [2]: 80 to 100% | pest or weed control at 200 ppm (Erysiphe cichoracaerum): 0 to 49% | pest or weed control at 75 ppm [3]: 50 to 79% | pest or weed control at 200 ppm (Phytophthora infestans): 50 to 79% | pest or weed control at 200 ppm (Colletotricum lagenarium): 80 to 100% | pest or weed control at 200 ppm (Leptosphaeria nodorum): 80 to 100%

FC(F)(F)c1cc(Oc2ccc(CCNc3ncnc4scc(Cl)c34)cc2)cc(C(F)(F)F)n1 [Compound 75]
pest or weed control at 200 ppm [1]: 80 to 100% | pest or weed control at 200 ppm [2]: 80 to 100% | pest or weed control at 200 ppm (Erysiphe cichoracaerum): 80 to 100% | pest or weed control at 75 ppm [3]: 50 to 79% | pest or weed control at 200 ppm (Phytophthora infestans): 0 to 49% | pest or weed control at 200 ppm (Colletotricum lagenarium): 80 to 100% | pest or weed control at 200 ppm (Leptosphaeria nodorum): 80 to 100%

FC(F)(F)c1cc(Oc2ccc(CCNc3ncnc4scc(Cl)c34)cc2)nc(C(F)(F)F)c1 [Compound 76]
pest or weed control at 200 ppm [1]: 80 to 100% | pest or weed control at 200 ppm [2]: 80 to 100% | pest or weed control at 200 ppm (Erysiphe cichoracaerum): 0 to 49% | pest or weed control at 75 ppm [3]: 0 to 49% | pest or weed control at 200 ppm (Phytophthora infestans): 0 to 49% | pest or weed control at 200 ppm (Colletotricum lagenarium): 50 to 79% | pest or weed control at 200 ppm (Leptosphaeria nodorum): 50 to 79%

Clc1csc2ncnc(NCCc3ccc(Oc4cccc(C(Cl)(Cl)Cl)n4)cc3)c12 [Compound 77]
pest or weed control at 200 ppm [1]: 80 to 100% | pest or weed control at 200 ppm [2]: 80 to 100% | pest or weed control at 200 ppm (Erysiphe cichoracaerum): 0 to 49% | pest or weed control at 75 ppm [3]: 0 to 49% | pest or weed control at 200 ppm (Phytophthora infestans): 0 to 49% | pest or weed control at 200 ppm (Colletotricum lagenarium): 0 to 49% | pest or weed control at 200 ppm (Leptosphaeria nodorum): 80 to 100%

FC(F)(F)c1ncccc1Oc1ccc(CCNc2ncnc3scc(Cl)c23)cc1 [Compound 78]
pest or weed control at 200 ppm [1]: 80 to 100% | pest or weed control at 200 ppm [2]: 80 to 100% | pest or weed control at 200 ppm (Erysiphe cichoracaerum): 80 to 100% | pest or weed control at 75 ppm [3]: 50 to 79% | pest or weed control at 200 ppm (Phytophthora infestans): 50 to 79% | pest or weed control at 200 ppm (Colletotricum lagenarium): 50 to 79% | pest or weed control at 200 ppm (Leptosphaeria nodorum): 80 to 100%

COC(=O)c1cccc(Oc2ccc(CCNc3ncnc4scc(Cl)c34)cc2)n1 [Compound 79]
pest or weed control at 200 ppm [1]: 80 to 100% | pest or weed control at 200 ppm [2]: 80 to 100% | pest or weed control at 200 ppm (Erysiphe cichoracaerum): 0 to 49% | pest or weed control at 75 ppm [3]: 0 to 49% | pest or weed control at 200 ppm (Phytophthora infestans): 80 to 100% | pest or weed control at 200 ppm (Colletotricum lagenarium): 0 to 49% | pest or weed control at 200 ppm (Leptosphaeria nodorum): 0 to 49%

CCOC(=O)c1cccc(Oc2ccc(CCNc3ncnc4scc(Cl)c34)cc2)n1 [Compound 80]
pest or weed control at 200 ppm [1]: 80 to 100% | pest or weed control at 200 ppm [2]: 80 to 100% | pest or weed control at 200 ppm (Erysiphe cichoracaerum): 0 to 49% | pest or weed control at 75 ppm [3]: 0 to 49% | pest or weed control at 200 ppm (Phytophthora infestans): 80 to 100% | pest or weed control at 200 ppm (Colletotricum lagenarium): 0 to 49% | pest or weed control at 200 ppm (Leptosphaeria nodorum): 0 to 49%

COc1cc(C#N)cc(Oc2ccc(CCNc3ncnc4scc(Cl)c34)cc2)n1 [Compound 81]
pest or weed control at 200 ppm [1]: 80 to 100% | pest or weed control at 200 ppm [2]: 80 to 100% | pest or weed control at 200 ppm (Erysiphe cichoracaerum): 50 to 79% | pest or weed control at 75 ppm [3]: 50 to 79% | pest or weed control at 200 ppm (Phytophthora infestans): 0 to 49% | pest or weed control at 200 ppm (Colletotricum lagenarium): 50 to 79% | pest or weed control at 200 ppm (Leptosphaeria nodorum): 80 to 100%
